Assay results as given in US20030224416A1, “Schizophrenia related gene” (priority 2002, published 2003).

System: Kv3.1 α-subunit mRNA
Test: Experiment 1: in situ hybridization of Kv3.1 α-subunit mRNA in brain, chronic PCP rat model of schizophrenia with antipsychotic co-treatment
Type: in vivo

## CN1CCN(C2=Nc3ccc(F)cc3Nc3sc4ccccc4c32)CC1.O=C(O)/C=C\C(=O)O [Y-931, 8-fluoro-12-(4-methylpiperazin-1-yl)-6H-[l]benzothieno[2,3-b][1,5]benzo-diazepine monomaleate]
ACg, PCP + drug 0.3 mg/kg/day
  Kv3.1 α-subunit mRNA expression: 15.36 ± 0.29 PSL/mm^2
ACg, PCP + drug 1 mg/kg/day
  Kv3.1 α-subunit mRNA expression: 15.10 ± 0.92 PSL/mm^2
ACg, PCP + drug 3 mg/kg/day
  Kv3.1 α-subunit mRNA expression: 15.40 ± 0.83 PSL/mm^2
ACg, PCP + drug 10 mg/kg/day
  Kv3.1 α-subunit mRNA expression: 14.82 ± 0.74 PSL/mm^2
AcbC, PCP + drug 0.3 mg/kg/day
  Kv3.1 α-subunit mRNA expression: 7.65 ± 0.40 PSL/mm^2
AcbC, PCP + drug 1 mg/kg/day
  Kv3.1 α-subunit mRNA expression: 8.40 ± 0.63 PSL/mm^2
AcbC, PCP + drug 3 mg/kg/day
  Kv3.1 α-subunit mRNA expression: 8.44 ± 0.43 PSL/mm^2
AcbC, PCP + drug 10 mg/kg/day
  Kv3.1 α-subunit mRNA expression: 8.42 ± 0.53 PSL/mm^2
AcbS, PCP + drug 0.3 mg/kg/day
  Kv3.1 α-subunit mRNA expression: 10.24 ± 0.64 PSL/mm^2
AcbS, PCP + drug 1 mg/kg/day
  Kv3.1 α-subunit mRNA expression: 11.55 ± 0.50 PSL/mm^2
AcbS, PCP + drug 3 mg/kg/day
  Kv3.1 α-subunit mRNA expression: 11.11 ± 0.27 PSL/mm^2
AcbS, PCP + drug 10 mg/kg/day
  Kv3.1 α-subunit mRNA expression: 11.26 ± 0.67 PSL/mm^2
Au1, PCP + drug 0.3 mg/kg/day
  Kv3.1 α-subunit mRNA expression: 17.02 ± 1.26 PSL/mm^2
Au1, PCP + drug 1 mg/kg/day
  Kv3.1 α-subunit mRNA expression: 18.48 ± 1.36 PSL/mm^2
Au1, PCP + drug 3 mg/kg/day
  Kv3.1 α-subunit mRNA expression: 16.76 ± 0.32 PSL/mm^2
Au1, PCP + drug 10 mg/kg/day
  Kv3.1 α-subunit mRNA expression: 17.98 ± 0.68 PSL/mm^2
CA1pd, PCP + drug 0.3 mg/kg/day
  Kv3.1 α-subunit mRNA expression: 16.80 ± 1.23 PSL/mm^2
CA1pd, PCP + drug 1 mg/kg/day
  Kv3.1 α-subunit mRNA expression: 18.34 ± 0.91 PSL/mm^2
CA1pd, PCP + drug 3 mg/kg/day
  Kv3.1 α-subunit mRNA expression: 16.47 ± 0.98 PSL/mm^2
CA1pd, PCP + drug 10 mg/kg/day
  Kv3.1 α-subunit mRNA expression: 19.18 ± 2.03 PSL/mm^2
CA2pd, PCP + drug 0.3 mg/kg/day
  Kv3.1 α-subunit mRNA expression: 24.07 ± 1.74 PSL/mm^2
CA2pd, PCP + drug 1 mg/kg/day
  Kv3.1 α-subunit mRNA expression: 20.07 ± 1.71 PSL/mm^2
CA2pd, PCP + drug 3 mg/kg/day
  Kv3.1 α-subunit mRNA expression: 21.47 ± 2.23 PSL/mm^2
CA2pd, PCP + drug 10 mg/kg/day
  Kv3.1 α-subunit mRNA expression: 22.31 ± 1.57 PSL/mm^2
CA3pd, PCP + drug 0.3 mg/kg/day
  Kv3.1 α-subunit mRNA expression: 34.10 ± 1.52 PSL/mm^2
CA3pd, PCP + drug 1 mg/kg/day
  Kv3.1 α-subunit mRNA expression: 33.99 ± 3.29 PSL/mm^2
CA3pd, PCP + drug 3 mg/kg/day
  Kv3.1 α-subunit mRNA expression: 34.72 ± 1.24 PSL/mm^2
CA3pd, PCP + drug 10 mg/kg/day
  Kv3.1 α-subunit mRNA expression: 33.90 ± 2.52 PSL/mm^2
DGgd, PCP + drug 0.3 mg/kg/day
  Kv3.1 α-subunit mRNA expression: 38.38 ± 1.53 PSL/mm^2
DGgd, PCP + drug 1 mg/kg/day
  Kv3.1 α-subunit mRNA expression: 39.21 ± 1.75 PSL/mm^2
DGgd, PCP + drug 3 mg/kg/day
  Kv3.1 α-subunit mRNA expression: 36.93 ± 2.53 PSL/mm^2
DGgd, PCP + drug 10 mg/kg/day
  Kv3.1 α-subunit mRNA expression: 36.11 ± 2.06 PSL/mm^2
DLStr, PCP + drug 0.3 mg/kg/day
  Kv3.1 α-subunit mRNA expression: 6.55 ± 0.53 PSL/mm^2
DLStr, PCP + drug 1 mg/kg/day
  Kv3.1 α-subunit mRNA expression: 5.99 ± 0.96 PSL/mm^2
DLStr, PCP + drug 3 mg/kg/day
  Kv3.1 α-subunit mRNA expression: 7.13 ± 0.70 PSL/mm^2
DLStr, PCP + drug 10 mg/kg/day
  Kv3.1 α-subunit mRNA expression: 7.46 ± 0.86 PSL/mm^2
IL, PCP + drug 0.3 mg/kg/day
  Kv3.1 α-subunit mRNA expression: 11.64 ± 0.40 PSL/mm^2
IL, PCP + drug 1 mg/kg/day
  Kv3.1 α-subunit mRNA expression: 11.33 ± 0.60 PSL/mm^2
IL, PCP + drug 3 mg/kg/day
  Kv3.1 α-subunit mRNA expression: 12.91 ± 0.38 PSL/mm^2
IL, PCP + drug 10 mg/kg/day
  Kv3.1 α-subunit mRNA expression: 11.55 ± 0.45 PSL/mm^2
IO, PCP + drug 0.3 mg/kg/day
  Kv3.1 α-subunit mRNA expression: 17.52 ± 0.95 PSL/mm^2
IO, PCP + drug 1 mg/kg/day
  Kv3.1 α-subunit mRNA expression: 15.49 ± 0.30 PSL/mm^2
IO, PCP + drug 3 mg/kg/day
  Kv3.1 α-subunit mRNA expression: 17.52 ± 0.36 PSL/mm^2
IO, PCP + drug 10 mg/kg/day
  Kv3.1 α-subunit mRNA expression: 15.30 ± 0.62 PSL/mm^2
M1, PCP + drug 0.3 mg/kg/day
  Kv3.1 α-subunit mRNA expression: 15.33 ± 0.38 PSL/mm^2
M1, PCP + drug 1 mg/kg/day
  Kv3.1 α-subunit mRNA expression: 14.81 ± 0.80 PSL/mm^2
M1, PCP + drug 3 mg/kg/day
  Kv3.1 α-subunit mRNA expression: 17.01 ± 0.75 PSL/mm^2
M1, PCP + drug 10 mg/kg/day
  Kv3.1 α-subunit mRNA expression: 16.51 ± 0.67 PSL/mm^2
M2, PCP + drug 0.3 mg/kg/day
  Kv3.1 α-subunit mRNA expression: 13.23 ± 0.29 PSL/mm^2
M2, PCP + drug 1 mg/kg/day
  Kv3.1 α-subunit mRNA expression: 13.10 ± 0.57 PSL/mm^2
M2, PCP + drug 3 mg/kg/day
  Kv3.1 α-subunit mRNA expression: 14.25 ± 0.81 PSL/mm^2
M2, PCP + drug 10 mg/kg/day
  Kv3.1 α-subunit mRNA expression: 13.04 ± 0.53 PSL/mm^2
MG, PCP + drug 0.3 mg/kg/day
  Kv3.1 α-subunit mRNA expression: 26.82 ± 1.55 PSL/mm^2
MG, PCP + drug 1 mg/kg/day
  Kv3.1 α-subunit mRNA expression: 26.36 ± 0.95 PSL/mm^2
MG, PCP + drug 3 mg/kg/day
  Kv3.1 α-subunit mRNA expression: 26.75 ± 2.02 PSL/mm^2
MG, PCP + drug 10 mg/kg/day
  Kv3.1 α-subunit mRNA expression: 27.36 ± 1.86 PSL/mm^2
MM, PCP + drug 0.3 mg/kg/day
  Kv3.1 α-subunit mRNA expression: 25.02 ± 2.54 PSL/mm^2
MM, PCP + drug 1 mg/kg/day
  Kv3.1 α-subunit mRNA expression: 24.82 ± 0.93 PSL/mm^2
MM, PCP + drug 3 mg/kg/day
  Kv3.1 α-subunit mRNA expression: 20.92 ± 0.93 PSL/mm^2
MM, PCP + drug 10 mg/kg/day
  Kv3.1 α-subunit mRNA expression: 28.12 ± 1.89 PSL/mm^2
Pir, PCP + drug 0.3 mg/kg/day
  Kv3.1 α-subunit mRNA expression: 38.95 ± 2.38 PSL/mm^2
Pir, PCP + drug 1 mg/kg/day
  Kv3.1 α-subunit mRNA expression: 43.16 ± 2.76 PSL/mm^2
Pir, PCP + drug 3 mg/kg/day
  Kv3.1 α-subunit mRNA expression: 38.15 ± 3.31 PSL/mm^2
Pir, PCP + drug 10 mg/kg/day
  Kv3.1 α-subunit mRNA expression: 41.69 ± 1.90 PSL/mm^2
PrL, PCP + drug 0.3 mg/kg/day
  Kv3.1 α-subunit mRNA expression: 12.76 PSL/mm^2
PrL, PCP + drug 1 mg/kg/day
  Kv3.1 α-subunit mRNA expression: 12.17 PSL/mm^2
PrL, PCP + drug 3 mg/kg/day
  Kv3.1 α-subunit mRNA expression: 12.93 PSL/mm^2
PrL, PCP + drug 10 mg/kg/day
  Kv3.1 α-subunit mRNA expression: 12.55 PSL/mm^2
PrL, all doses administered (0.3-10 mg/kg/day)
  effect on PCP-induced decrease in Kv3.1 α-subunit mRNA expression: significantly reversed the PCP-induced decrease back to control levels
RSa, PCP + drug 0.3 mg/kg/day
  Kv3.1 α-subunit mRNA expression: 19.22 ± 1.40 PSL/mm^2
RSa, PCP + drug 1 mg/kg/day
  Kv3.1 α-subunit mRNA expression: 18.90 ± 1.03 PSL/mm^2
RSa, PCP + drug 3 mg/kg/day
  Kv3.1 α-subunit mRNA expression: 17.36 ± 1.55 PSL/mm^2
RSa, PCP + drug 10 mg/kg/day
  Kv3.1 α-subunit mRNA expression: 18.04 ± 0.87 PSL/mm^2
RSg, PCP + drug 0.3 mg/kg/day
  Kv3.1 α-subunit mRNA expression: 20.89 ± 0.95 PSL/mm^2
RSg, PCP + drug 1 mg/kg/day
  Kv3.1 α-subunit mRNA expression: 19.99 ± 0.59 PSL/mm^2
RSg, PCP + drug 3 mg/kg/day
  Kv3.1 α-subunit mRNA expression: 20.73 ± 1.22 PSL/mm^2
RSg, PCP + drug 10 mg/kg/day
  Kv3.1 α-subunit mRNA expression: 19.48 ± 0.64 PSL/mm^2
SN, PCP + drug 0.3 mg/kg/day
  Kv3.1 α-subunit mRNA expression: 11.66 ± 0.91 PSL/mm^2
SN, PCP + drug 1 mg/kg/day
  Kv3.1 α-subunit mRNA expression: 12.98 ± 1.12 PSL/mm^2
SN, PCP + drug 3 mg/kg/day
  Kv3.1 α-subunit mRNA expression: 13.04 ± 1.29 PSL/mm^2
SN, PCP + drug 10 mg/kg/day
  Kv3.1 α-subunit mRNA expression: 15.34 ± 1.58 PSL/mm^2
VMStr, PCP + drug 0.3 mg/kg/day
  Kv3.1 α-subunit mRNA expression: 6.75 ± 0.50 PSL/mm^2
VMStr, PCP + drug 1 mg/kg/day
  Kv3.1 α-subunit mRNA expression: 7.18 ± 0.71 PSL/mm^2
VMStr, PCP + drug 3 mg/kg/day
  Kv3.1 α-subunit mRNA expression: 7.69 ± 0.35 PSL/mm^2
VMStr, PCP + drug 10 mg/kg/day
  Kv3.1 α-subunit mRNA expression: 7.23 ± 0.26 PSL/mm^2
VO, PCP + drug 0.3 mg/kg/day
  Kv3.1 α-subunit mRNA expression: 19.12 ± 0.74 PSL/mm^2
VO, PCP + drug 1 mg/kg/day
  Kv3.1 α-subunit mRNA expression: 17.81 ± 1.08 PSL/mm^2
VO, PCP + drug 3 mg/kg/day
  Kv3.1 α-subunit mRNA expression: 19.32 ± 0.63 PSL/mm^2
VO, PCP + drug 10 mg/kg/day
  Kv3.1 α-subunit mRNA expression: 18.51 ± 1.08 PSL/mm^2
Chronic co-administration with PCP
  effect on PCP-induced decreases in Kv3.1 α-subunit mRNA expression (summary): reversed
dRt and DLStr
  effect on PCP-induced decrease in Kv3.1 α-subunit mRNA expression: neither Y-931 nor olanzapine significantly modulated the PCP-induced effect
dRt, PCP + drug 0.3 mg/kg/day
  Kv3.1 α-subunit mRNA expression: 54.94 ± 1.99 PSL/mm^2
dRt, PCP + drug 1 mg/kg/day
  Kv3.1 α-subunit mRNA expression: 51.68 ± 2.34 PSL/mm^2
dRt, PCP + drug 3 mg/kg/day
  Kv3.1 α-subunit mRNA expression: 53.38 ± 2.99 PSL/mm^2
dRt, PCP + drug 10 mg/kg/day
  Kv3.1 α-subunit mRNA expression: 54.81 ± 1.90 PSL/mm^2
vRt, PCP + drug 0.3 mg/kg/day
  Kv3.1 α-subunit mRNA expression: 46.91 ± 2.73 PSL/mm^2
vRt, PCP + drug 1 mg/kg/day
  Kv3.1 α-subunit mRNA expression: 47.18 ± 2.10 PSL/mm^2
vRt, PCP + drug 3 mg/kg/day
  Kv3.1 α-subunit mRNA expression: 52.57 ± 2.00 PSL/mm^2
vRt, PCP + drug 10 mg/kg/day
  Kv3.1 α-subunit mRNA expression: 49.70 ± 2.76 PSL/mm^2
